Measured values taken from US8067394B2, “Synthesis and biological activities of new tricyclic-bis-enones (TBEs)” (Trustees of Dartmouth College, priority 2006, dated 2011).
Entries after “also recorded” stand apart in the source; their conditions may differ. Like-named read-outs stand apart in the source and are kept apart here.

Columns and labels:
HO-1 = assay: Induction of HO-1 in RAW cells (Western blot); format: cell-based, mouse; conditions: FIG. 9; 30-300 nM, 24 hours
[1] = system: NO production in RAW cells; assay: Inhibition of NO production in RAW cells stimulated with interferon-γ; format: cell-based, mouse; conditions: for IC50: read-out: IC50 (nM), NO production in RAW cells
iNOS = assay: Inhibition of iNOS induction in RAW cells stimulated with IFN-γ (Western blot); format: cell-based, mouse; conditions: FIG. 10; 30-300 nM, IFNγ 10 ng/ml, 24 hours
heme oxygenase-1 = assay: Induction of heme oxygenase-1 in liver of CD-1 mice after gavage; format: in vivo; conditions: FIG. 3; CD-1 mice, gavage in DMSO, livers after 6 h
Procedure: FIG. 3. […] CD-1 mice (2 per group) were gavaged with TBEs or CDDO-Im in DMSO. After 6 h, livers were harvested and homogenized. Lysates were separated by SDS-PAGE, probed with HO-1 antibodies, and developed by ECL.
FIG. 11. […] Male CD-1 mice (3 per group) were gavaged with 1 μmol TBEs, CDDO or CDDO-Im in DMSO. Six hours later, livers were harvested and homogenized. Lysates were separated by SDS-PAGE, probed with HO-1 antibodies, and developed by ECL.
CD-1 mice (2 per group) were gavaged with TBEs or CDDO-Im in DMSO. After 6 h, livers were harvested and homogenized. Lysates were separated by SDS-PAGE, probed with HO-1 antibodies, and developed by ECL.

[2] = system: NO production in primary mouse macrophages; conditions: cited from earlier work; for IC50: Table 1, stimulated with interferon-γ, compounds racemic
[3] = system: NO production in RAW cells; conditions: Honda et al., 2000, 2002; cited from earlier work
[4] = system: MCF-7 mouse breast cancer cell lines; conditions: Honda et al., 2003; cited from earlier work
[5] = Mus musculus, Table 5, C-8a functionalized TBE-9 analogs, stimulated with interferon-γ
[6] = Mus musculus, Table 6, optically active TBE-31 and 34, stimulated with interferon-7

Question: For `CC1(C)C(=O)C(C#N)=CC2(C)C3=CC(=O)C(C#N)=CC3(C#C[Si](C)(C)C)CCC12` (stereo not shown) [TBE-34], which “Induction of HO-1 in RAW cells” value (HO-1) is on record?
Answer: nearly equivalent in potency to TBE-31

Question: What about the “Potency for inhibition of NO production in RAW cells (in words)” value [1] of the same compound?
Answer: nearly equivalent potency to that of TBE-31

Question: And the IC50 ([1]; Mus musculus)?
Answer: 3 nM

Question: What about the “Inhibition of induction of iNOS in RAW cells stimulated with IFNγ” value (iNOS) of the same compound?
Answer: nearly equivalent in potency to TBE-31; also recorded: nearly equivalent in potency to both compounds

Question: With `CC1(C)C(=O)C(C#N)=CC2(C)C3=CC(=O)C(C#N)=CC3(C#CC#N)CCC12` (stereo not shown) [TBE-38] as the compound, how does the IC50 [1, 5] read?
Answer: 4 nM

Question: Which “Induction of HO-1 in RAW cells” value (HO-1) does the source give for `CC1(C)CC[C@]2(C(=O)n3ccnc3)CC[C@]3(C)[C@H](C(=O)C=C4[C@@]5(C)C=C(C#N)C(=O)C(C)(C)[C@@H]5CC[C@]43C)[C@@H]2C1` [CDDO-Im, 1-[2-cyano-3-,12-dioxooleana-1,9(11)-dien-28-oyl]imidazole, reference compound] here?
Answer: most potent compound amongst semi-synthetic triterpenoid analogues in this assay

Question: And the “Induction of heme oxygenase-1 in liver in vivo” value (heme oxygenase-1)?
Answer: very potent triterpenoid agent for induction of heme oxygenase-1

Question: With `CC1(C)CC[C@]2(C#N)CC[C@]3(C)[C@H](C(=O)C=C4[C@@]5(C)C=C(C#N)C(=O)C(C)(C)[C@@H]5CC[C@]43C)[C@@H]2C1` [TP-225, reference compound] as the compound, how does the IC50 [1, 5] read?
Answer: 1 nM

Question: Which IC50 [2] does the source give for `CC1(C)C(=O)C(C#N)=C[C@]2(C)C3=CC(=O)C=C[C@]3(C)CC[C@@H]12` [TBE-5] here?
Answer: 61 nM

Question: For `CC(=O)O[C@@H]1CCC=C2[C@@]3(C)C=C(C#N)C(=O)C(C)(C)[C@@H]3CC[C@]21C` [TBE-2], which IC50 [2] is on record?
Answer: 480 nM

Question: With `CC1(C)CC[C@]2(C(=O)O)CC[C@]3(C)C(=CC[C@@H]4[C@@]5(C)CC[C@H](O)C(C)(C)[C@@H]5CC[C@]43C)[C@@H]2C1` [Oleanolic acid, reference compound] as the compound, how does the IC50 [2] read?
Answer: > 40000 nM

Question: Which IC50 [1, 5] does the source give for `CC#CC12C=C(C#N)C(=O)C=C1C1(C)C=C(C#N)C(=O)C(C)(C)C1CC2` (stereo not shown) [TBE-35] here?
Answer: 5 nM

Question: Which IC50 [2] does the source give for `CC1(C)C(=O)C(C#N)=C[C@]2(C)C3=CC(=O)C[C@@H](O)[C@]3(C)CC[C@@H]12` [TBE-4] here?
Answer: 75 nM

Question: Which IC50 [1, 6] does the source give for `C#C[C@]12C=C(C#N)C(=O)C=C1[C@@]1(C)C=C(C#N)C(=O)C(C)(C)[C@@H]1CC2` [(−)-TBE-31] here?
Answer: 3 nM

Question: For `CC1(C)CC[C@]2(C(=O)O)CC[C@]3(C)[C@H](C(=O)C=C4[C@@]5(C)C=C(C#N)C(=O)C(C)(C)[C@@H]5CC[C@]43C)[C@@H]2C1` [CDDO, 2-cyano-3,12-dioxooleana-1,9(11)-dien-28-oic acid, reference compound], which IC50 ([1]; Table 4, C-8a functionalized TBE-10 analogs, stimulated with interferon-γ) is on record?
Answer: 6 nM

Question: What about the IC50 ([1]; Table 5, C-8a functionalized TBE-9 analogs, stimulated with interferon-γ) of the same compound?
Answer: 20 nM

Question: What about the IC50 [2] of the same compound?
Answer: 0.5 nM

Question: Which results are given for `C#CC#CC12C=C(C#N)C(=O)C=C1C1(C)C=C(C#N)C(=O)C(C)(C)C1CC2` (stereo not shown) [TBE-39]?
Answer: IC50 [1, 5]: 3 nM; Potency for inhibition of NO production in RAW cells (in words) ([1]; RAW cells, interferon-γ): nearly equivalent potency to that of TBE-31

Question: With `COC(=O)[C@]12CCC(C)(C)C[C@H]1C1C(=O)C=C3[C@@]4(C)C=C(C(=O)O)C(=O)C(C)(C)[C@@H]4CC[C@@]3(C)[C@]1(C)CC2` (stereo partly shown) [TP-190, reference compound] as the compound, how does the “Inhibition of NO production in RAW cells (in words)” value [3] read?
Answer: potent inhibitors of NO production

Question: What about the “Inhibition of NO production in mouse macrophages (in words)” value ([2]; Honda et al., 2000, 2002) of the same compound?
Answer: potent inhibitors of NO production

Question: Which IC50 [1, 6] does the source give for `C#C[C@@]12C=C(C#N)C(=O)C=C1[C@@]1(C)C=C(C#N)C(=O)C(C)(C)[C@H]1CC2` [(+)-TBE-31, (+)-(4bS,8aS,10aR)-10a-ethynyl-4b,8,8-trimethyl-3,7-dioxo-3,4b,7,8,8a,9,10,10a-octahydrophenanthrene-2,6-dicarbonitrile] here?
Answer: 1 nM

Question: For `CCC#CC12C=C(C#N)C(=O)C=C1C1(C)C=C(C#N)C(=O)C(C)(C)C1CC2` (stereo not shown) [TBE-36], which IC50 [1, 5] is on record?
Answer: 20 nM

Question: Which IC50 ([1]; Table 6, optically active TBE-31 and 34, stimulated with interferon-7) does the source give for `CC1(C)C(=O)C(C#N)=CC2(C)C3=CC(=O)C(C#N)=CC3(C#C[Si](C)(C)C)CCC12` (single isomer, unassigned; (-)) [(−)-TBE-34] here?
Answer: 3 nM

Question: With `CC1(C)C(=O)C(C#N)=C[C@]2(C)C3=CC(=O)C(C#N)=C[C@]3(C)CC[C@@H]12` [(−)-TBE-9] as the compound, how does the “Activity against MCF-7 mouse breast cancer cell lines” value [4] read?
Answer: active

Question: Which IC50 ([1]; Mus musculus, Table 4, C-8a functionalized TBE-10 analogs, stimulated with interferon-γ) does the source give for `C[C@]12CCC(=O)C=C1CC[C@@H]1[C@@H]2[C@@H](O)C[C@@]2(C)[C@H]1CC[C@]2(O)C(=O)CO` [hydrocortisone, reference compound] here?
Answer: 61 nM

Question: What about the IC50 [2] of the same compound?
Answer: 10 nM

Question: Which IC50 [2] does the source give for `CC(=O)O[C@@H]1CC(=O)C=C2[C@@]3(C)C=C(C#N)C(=O)C(C)(C)[C@@H]3CC[C@]21C` [TBE-3] here?
Answer: 53 nM
